Data reported in ChEMBL document CHEMBL2169792, “Synthesis of new 4-thiazolidinone-, pyrazoline-, and isatin-based conjugates with promising antitumor activity” (J Med Chem, 2012).
Activity calls are given as the source filed them. The calls are words filed in the database; no cut-off is given here.

Tests used:
SNB-75 = assay: Cytotoxicity against human SNB75 cells assessed as cell growth at 10 uM after 48 hrs by SRB assay; assay type: functional; conditions: SNB-75, 48 h, read-out: Activity
[1] = Cytotoxicity against human non-small cell lung cancer cells after 48 hrs by SRB assay; assay type: functional; conditions: Cancer cell lines; for CC50: read-out: LC50 (the source's name)
[2] = Cytotoxicity against human prostate cancer cells after 48 hrs by SRB assay; assay type: functional; conditions: Cancer cell lines
[3] = Cytotoxicity against human breast cancer cells after 48 hrs by SRB assay; assay type: functional; conditions: Cancer cell lines
[4] = Cytotoxicity against human renal cancer cells after 48 hrs by SRB assay; assay type: functional; conditions: Cancer cell lines
[5] = Cytotoxicity against human melanoma cells after 48 hrs by SRB assay; assay type: functional; conditions: Melanoma cell; for CC50: read-out: LC50 (the source's name)
[6] = Cytotoxicity against human ovarian cancer cells after 48 hrs by SRB assay; assay type: functional; conditions: Cancer cell lines
[7] = Cytotoxicity against human CNS cancer cells after 48 hrs by SRB assay; assay type: functional; conditions: Cancer cell lines
[8] = Cytotoxicity against human colon cancer cells after 48 hrs by SRB assay; assay type: functional; conditions: Cancer cell lines
[9] = Cytotoxicity against human leukemia cells after 48 hrs by SRB assay; assay type: functional; conditions: Leukemia cell; for CC50: read-out: LC50 (the source's name)
HL-60(TB) = assay: Cytotoxicity against human HL-60(TB) cells assessed as cell growth at 10 uM after 48 hrs by SRB assay; assay type: functional; conditions: HL-60, 48 h, read-out: Activity
OVCAR-4 = assay: Cytotoxicity against human OVCAR4 cells assessed as cell growth at 10 uM after 48 hrs by SRB assay; assay type: functional; conditions: OVCAR-4, 48 h, read-out: Activity
OVCAR-3 = assay: Cytotoxicity against human OVCAR3 cells assessed as cell growth at 10 uM after 48 hrs by SRB assay; assay type: functional; conditions: OVCAR-3, 48 h, read-out: Activity
786-0 = assay: Cytotoxicity against human 786-0 cells assessed as cell growth at 10 uM after 48 hrs by SRB assay; assay type: functional; conditions: 786-0, 48 h, read-out: Activity
MOLT-4 = assay: Cytotoxicity against human MOLT4 cells assessed as cell growth at 10 uM after 48 hrs by SRB assay; assay type: functional; conditions: MOLT-4, 48 h, read-out: Activity
[10] = Toxicity in mouse; assay type: organism-based; conditions: in vivo
Mus musculus = assay: Antitumor activity in ip dosed athymic nude mouse hollow fiber model assessed as reduction of viable cell mass; assay type: functional, organism-based
SF-539 = assay: Cytotoxicity against human SF539 cells assessed as cell growth at 10 uM after 48 hrs by SRB assay; assay type: functional; conditions: SF-539, 48 h, read-out: Activity
TK-10 = assay: Cytotoxicity against human TK10 cells assessed as cell growth at 10 uM after 48 hrs by SRB assay; assay type: functional; conditions: TK-10, 48 h, read-out: Activity
HCT-116 = assay: Cytotoxicity against human HCT116 cells assessed as cell growth at 10 uM after 48 hrs by SRB assay; assay type: functional; conditions: HCT-116, 48 h, read-out: Activity

SMILES	GI50 [1]	TGI [1]	CC50 [1]	GI50 [2]	LC50 [2]	TGI [2]	GI50 [3]	LC50 (concentration causing 50% net cell kill) [3]	TGI [3]	GI50 [4]	LC50 [4]	TGI [4]	GI50 [5]	TGI [5]	CC50 [5]	GI50 [6]	LC50 (concentration causing 50% net cell kill) [6]	TGI [6]	GI50 [7]	LC50 (concentration giving 50% net cell kill) [7]	further results
O=C(O)CN1C(=O)C(n2nc(-c3ccccc3)cc2-c2ccccc2O)c2ccccc21 (stereo unspecified)	–	–	–	–	–	–	–	–	–	–	–	–	–	–	–	–	–	–	–	–	growth at 10 µM (SNB-75): 108%
CN(C)c1ccc(-c2cc(-c3ccccc3)nn2C2C(=O)Nc3ccccc32)cc1 (stereo unspecified)	16.2 µM	56 µM	90.9 µM	16.1 µM	100 µM	74 µM	20.8 µM	90.1 µM	73.4 µM	17.4 µM	86.2 µM	57.3 µM	19.6 µM	54.5 µM	91.2 µM	18.9 µM	93.3 µM	67.2 µM	21.2 µM	95.1 µM	TGI [7]: 68.7 µM; GI50 [8]: 16.1 µM; LC50 (concentration lethal to 50% of cells) [8]: 79 µM; TGI [8]: 39.7 µM; GI50 [9]: 16.3 µM; TGI [9]: 74.6 µM; CC50 [9]: 100 µM; growth at 10 µM (HL-60(TB)): 70.9%
O=C1Nc2ccc(Br)cc2C1n1nc(-c2ccc3ccccc3c2)cc1-c1ccc(Cl)cc1 (stereo unspecified)	3.31 µM	10 µM	34.5 µM	2.57 µM	34.4 µM	8.89 µM	4.3 µM	62.1 µM	14.3 µM	2.5 µM	27.2 µM	7.66 µM	6.53 µM	22.4 µM	56.8 µM	3.09 µM	33.2 µM	9.85 µM	3.18 µM	33.3 µM	TGI [7]: 10.5 µM; GI50 [8]: 4.33 µM; LC50 (concentration lethal to 50% of cells) [8]: 51.1 µM; TGI [8]: 15 µM; GI50 [9]: 10.4 µM; TGI [9]: 15.2 µM; CC50 [9]: 79.2 µM; growth at 10 µM (OVCAR-4): 58.5%
COc1ccc(C2CC(c3ccccc3)=NN2C2=NC(=O)/C(=C3\C(=O)Nc4ccccc43)S2)cc1 (stereo unspecified)	2.38 µM	6.04 µM	70.8 µM	1.52 µM	7.37 µM	3.35 µM	2.02 µM	39 µM	4.58 µM	2.01 µM	34.3 µM	4.27 µM	2 µM	4.51 µM	38 µM	2.3 µM	71.1 µM	19 µM	1.62 µM	7.39 µM	TGI [7]: 3.45 µM; GI50 [8]: 1.81 µM; LC50 (concentration lethal to 50% of cells) [8]: 32 µM; TGI [8]: 4.39 µM; GI50 [9]: 1.64 µM; TGI [9]: 20.8 µM; CC50 [9]: 93 µM; growth at 10 µM (OVCAR-3): -51.4%
O=C1Nc2ccc(Br)cc2C1n1nc(-c2ccccc2)cc1-c1ccc(Cl)cc1 (stereo unspecified)	–	–	–	–	–	–	–	–	–	–	–	–	–	–	–	–	–	–	–	–	growth at 10 µM (786-0): 90.1%
COc1ccc(-c2cc(-c3ccc4ccccc4c3)nn2C2C(=O)Nc3ccc(Cl)cc32)cc1 (stereo unspecified)	–	–	–	–	–	–	–	–	–	–	–	–	–	–	–	–	–	–	–	–	growth at 10 µM (MOLT-4): 98.2%
COc1ccc(C2=NN(C3=NC(=O)/C(=C4\C(=O)Nc5ccccc54)S3)C(c3ccc(Cl)cc3)C2)cc1 (stereo unspecified)	92.4 µM	100 µM	100 µM	100 µM	100 µM	100 µM	100 µM	100 µM	100 µM	100 µM	100 µM	100 µM	100 µM	100 µM	100 µM	100 µM	100 µM	100 µM	77.5 µM	100 µM	MTD [10]: > 400 mg/kg; TGI [7]: 100 µM; GI50 [8]: 100 µM; LC50 (concentration lethal to 50% of cells) [8]: 100 µM; TGI [8]: 100 µM; GI50 [9]: 86.5 µM; TGI [9]: 90.9 µM; CC50 [9]: 100 µM; growth at 10 µM (OVCAR-3): 77.5%; Activity (Mus musculus): inactive
COc1ccc(C2CC(c3ccccc3)=NN2C2=NC(=O)/C(=C3\C(=O)Nc4ccc(Br)cc43)S2)cc1 (stereo unspecified)	0.2 µM	0.51 µM	3.27 µM	0.24 µM	39.5 µM	0.66 µM	0.2 µM	26.5 µM	0.48 µM	0.18 µM	1.27 µM	0.36 µM	0.21 µM	0.55 µM	5.01 µM	0.23 µM	23.4 µM	3.63 µM	0.18 µM	6.48 µM	MTD [10]: > 400 mg/kg; TGI [7]: 0.39 µM; GI50 [8]: 0.19 µM; LC50 (concentration lethal to 50% of cells) [8]: 1.07 µM; TGI [8]: 0.39 µM; GI50 [9]: 0.25 µM; TGI [9]: 4.23 µM; CC50 [9]: 51 µM; growth at 10 µM (SF-539): -55.1%; Activity (Mus musculus): inactive
COc1ccc(C2CC(c3ccccc3)=NN2C2=NC(=O)/C(=C3\C(=O)N(CC(=O)O)c4ccccc43)S2)cc1 (stereo unspecified)	–	–	–	–	–	–	–	–	–	–	–	–	–	–	–	–	–	–	–	–	growth at 10 µM (TK-10): 97.3%
O=C1N=C(N2N=C(c3ccccc3)CC2c2ccccc2O)S/C1=C1/C(=O)Nc2ccccc21 (stereo unspecified)	2.03 µM	4.73 µM	57.2 µM	2.05 µM	54.7 µM	4.35 µM	2.09 µM	64.6 µM	4.77 µM	2.07 µM	55.8 µM	17.8 µM	2.04 µM	4.4 µM	60.8 µM	2.41 µM	81.5 µM	36.6 µM	2.13 µM	68.1 µM	TGI [7]: 5.37 µM; GI50 [8]: 1.99 µM; LC50 (concentration lethal to 50% of cells) [8]: 33.4 µM; TGI [8]: 4.22 µM; GI50 [9]: 3.19 µM; TGI [9]: 48.8 µM; CC50 [9]: 100 µM; growth at 10 µM (HCT-116): -37.4%
